Measured values reported in ChEMBL document CHEMBL4651402, “Screening of ~5500 FDA-approved drugs and clinical candidates for anti-SARS-CoV-2 activity” (2021).
Numbered stars: 1 amine (or outer) side, 2 acyl side, 3 side chain; on linkers, the order of the positions; unused ones are H or OH. Bridge positions count the residues as written; N and C are the ends. Square brackets hold non-standard residues; d marks the D form. Peptide text beside a SMILES is read from it. I, II: the chains in the order shown. Actinocin(1to9) = Cc1c2oc3c(C)ccc(C(=O)[*:2])c3nc-2c(C(=O)[*:1])c(N)c1=O; NMeV = CN[C@H](C(=O)O)C(C)C; Sar = CNCC(=O)O

Test system: SARS-CoV-2
Assay: microbe, parasite or virus in culture
Settings: Severe acute respiratory syndrome coronavirus 2, Vero C1008, 48 h

| Structure (SMILES) | IC50 [µM] | IC50 (read-out: pIC50 (converted)) [µM] |
| --- | --- | --- |
| CC1CC2C3CCC4=CC(=O)C=CC4(C)[C@@]3(F)C(O)CC2(C)C1(O)C(=O)COP(=O)(O)O (stereo partly drawn) | > 20 | > 20 |
| O=C(O)c1cc2cc(F)ccc2[nH]1 [5-FLUOROINDOLE-2-CARBOXYLIC ACID] | > 20 | > 20 |
| C[C@]12CCC(=O)C=C1CC[C@@H]1[C@@H]2CC[C@@]2(C)[C@H]1CC[C@]2(O)C(=O)CO [CORTODOXONE] | > 20 | > 20 |
| COc1ccc(-n2nc(C(N)=O)c3c2C(=O)N(c2ccc(N4CCCCC4=O)cc2)CC3)cc1 [APIXABAN] | > 20 | > 20 |
| CCCCCCOc1nsnc1C1=CCCN(C)C1 [XANOMELINE] | > 20 | > 20 |
| COc1ccc(C(=O)c2ccccc2)c(O)c1 [OXYBENZONE] | > 20 | > 20 |
| CCN(CC)CCNC(=O)c1ccc(N)c(Cl)c1 [DECLOPRAMIDE] | > 20 | > 20 |
| CN(C)CCOC(c1ccccc1)c1ccnn1C (stereo not drawn) [CIZOLIRTINE] | > 20 | > 20 |
| Cc1ccc(S(=O)(=O)NC(=O)NN2CC3CCCC3C2)cc1 (stereo not drawn) [GLICLAZIDE] | > 20 | > 20 |
| O=C(O)CCCNC(=O)c1cccnc1 | > 20 | > 20 |
| CN1C(=O)CN=C(c2ccccc2)c2cc(Cl)ccc21 [DIAZEPAM] | > 20 | > 20 |
| CCN(c1cc(-c2ccc(CN3CCOCC3)cc2)cc(C(=O)NCc2c(C)cc(C)[nH]c2=O)c1C)C1CCOCC1 [TAZEMETOSTAT] | > 20 | > 20 |
| Oc1ccc2c3c1O[C@H]1[C@@H](O)CC[C@@]4(O)C(C2)N(CC2CCC2)CCC314 (stereo partly drawn) | > 20 | > 20 |
| OC[C@H]1O[C@@H](Oc2cc(O)cc(/C=C/c3ccc(O)cc3)c2)[C@H](O)[C@@H](O)[C@@H]1O [PICEID] | > 20 | > 20 |
| N[C@@H]1CONC1=O [CYCLOSERINE] | > 20 | > 20 |
| COc1ccc2c3c([nH]c2c1)C(C)=NCC3 [HARMALINE] | > 20 | > 20 |
| CC1CC[C@@]2(OC1)OC1CC3C4CC[C@@H]5C[C@@H](O)CC[C@]5(C)C4CC[C@]3(C)C1[C@@H]2C (stereo partly drawn) | > 20 | > 20 |
| CN1CC(CN(CCN=[N+]=[N-])S(C)(=O)=O)=CC2c3cccc4[nH]cc(c34)CC21 (stereo not drawn) | > 20 | > 20 |
| C#C[C@]1(O)CC[C@H]2[C@@H]3CCC4=CC(=O)CC[C@@H]4[C@H]3CC[C@@]21C [NORETHINDRONE] | > 20 | > 20 |
| CC(=O)Nc1ccc(CC(=O)O)cc1 [ACTARIT] | > 20 | > 20 |

| Structure (SMILES) | IC50 [µM] | IC50 (read-out: pIC50 (converted)) [µM] |
| --- | --- | --- |
| NS(=O)(=O)c1cc2c(cc1Cl)NC(C(Cl)Cl)NS2(=O)=O (stereo not drawn) [TRICHLORMETHIAZIDE] | > 20 | > 20 |
| CN1C2CCC1CC(OC1c3ccccc3CCc3ccccc31)C2 (stereo not drawn) | > 20 | > 20 |
| O=[N+]([O-])c1ccc(NN=C(c2ccc(O)cc2)c2ccc(O)cc2)c([N+](=O)[O-])c1 | > 20 | > 20 |
| OC(CCN1CCCCC1)(c1ccccc1)c1ccccc1 [PRIDINOL] | > 20 | > 20 |
| OC[C@H]1O[C@@H](n2cnc3c2N=CNC[C@H]3O)C[C@@H]1O [PENTOSTATIN] | > 20 | > 20 |
| Cc1cc(=O)oc2c(O)c(O)ccc12 [4-METHYLDAPHNETIN] | > 20 | > 20 |
| NCCc1ccc(O)cc1 [TYRAMINE] | > 20 | > 20 |
| C[N+]1(CCC(C(N)=O)(c2ccccc2)c2ccccc2)CCCCC1 | > 20 | > 20 |
| c1ccc2nc(N3CCNCC3)ccc2c1 [QUIPAZINE] | > 20 | > 20 |
| O=C(O)COC[C@H]1CC[C@H](COC(=O)N(c2ccccc2)c2ccc(Cl)cc2)CC1 | > 20 | > 20 |
| CCCn1c(=O)c2[nH]c(C3CCCC3)nc2n(CCC)c1=O [1,3-DIPROPYL-8-CYCLOPENTYLXANTHINE [DPCPX]] | > 20 | > 20 |
| COc1cc2c(cc1Cc1cccc(Cl)c1F)c(=O)c(C(=O)O)cn2[C@@H](CO)C(C)C | > 20 | > 20 |
| CCn1c(C(=O)N(C2CC2)C2CC2)cc2c3c(ncn3C)c(Nc3cc(C)n(C)n3)nc21 [BMS-911543] | > 20 | > 20 |
| NC[C@@H]1O[C@H](O[C@H]2[C@@H](O)[C@H](O[C@@H]3[C@@H](O)[C@H](N)C[C@H](N)[C@H]3O[C@H]3O[C@H](CN)[C@@H](O)[C@H](O)[C@H]3N)O[C@@H]2CO)[C@H](N)[C@@H](O)[C@@H]1O [FRAMYCETIN] | > 20 | > 20 |
| O=C(c1ccc(Cl)cc1)n1cc(Cc2nnn[nH]2)c2ccccc21 [INTRAZOLE] | > 20 | > 20 |
| CCN(CC)CC(C)(C)COC(=O)C(CO)c1ccccc1 (stereo not drawn) [AMPROTROPINE] | > 20 | > 20 |
| O=C1NCCN1c1ncc([N+](=O)[O-])s1 [NIRIDAZOLE] | > 20 | > 20 |
| CNC1=Nc2ccc(Cl)cc2C(c2ccccc2)=[N+]([O-])C1 [CHLORDIAZEPOXIDE] | > 20 | > 20 |
| CC(C)NCC(O)c1cc(O)cc(O)c1 (stereo not drawn) | > 20 | > 20 |
| O=C1CC[C@H](N2Cc3c(OCc4ccc(CN5CCOCC5)cc4)cccc3C2=O)C(=O)N1 [IBERDOMIDE] | > 20 | > 20 |

| Structure (SMILES) | IC50 [µM] | IC50 (read-out: pIC50 (converted)) [µM] |
| --- | --- | --- |
| Nc1nc(OCc2cc(Br)cs2)c2[nH]cnc2n1 [LOMEGUATRIB] | > 20 | > 20 |
| Nc1ccc(C(=O)O)cc1 [AMINOBENZOIC ACID] | > 20 | > 20 |
| COCc1c(-c2cc3cc(C)cc(OC)c3s2)c2c(N)ncnn2c1CN1CCNC(=O)C1 [ROGARATINIB] | > 20 | > 20 |
| Cc1ccc2c(c1)c1c3n2CCNC3CCC1 (stereo not drawn) [PIRLINDOLE] | > 20 | > 20 |
| CN(C)CCCSC(=N)N | > 20 | > 20 |
| CCC(=O)OCC(=O)[C@@]1(OC(=O)CC)C(C)CC2C3CCC4=CC(=O)C=CC4(C)[C@@]3(Cl)C(O)CC21C (stereo partly drawn) | > 20 | > 20 |
| CCOC(=O)c1cnc2c(cnn2CC)c1NN=C(C)C [ETAZOLATE] | > 20 | > 20 |
| CCOc1ccc(NC(=S)Nc2ccc(OCC)cc2)cc1 [ETOCARLIDE] | > 20 | > 20 |
| CC(=O)c1ccc2c(c1)C(=O)C1(CC1)O2 [SPIZOFURONE] | > 20 | > 20 |
| CC1=CC(=O)C(C(C)C)=CC1=O [THYMOQUINONE] | > 20 | > 20 |
| CC(C(=O)O)c1ccc(C(=O)c2ccccc2)s1 (stereo not drawn) [TIAPROFENIC ACID] | > 20 | > 20 |
| Cc1c2oc3c(C)ccc(C(=O)N[C@@H]4C(=O)N[C@@H](C(C)C)C(=O)N5CCC[C@H]5C(=O)N(C)CC(=O)N(C)[C@@H](C(C)C)C(=O)O[C@@H]4C)c3nc-2c(C(=O)N[C@@H]2C(=O)N[C@@H](C(C)C)C(=O)N3CCC[C@H]3C(=O)N(C)CC(=O)N(C)[C@@H](C(C)C)C(=O)O[C@@H]2C)c(N)c1=O (I: TVP[Sar][NMeV] / II: TVP[Sar][NMeV]; ester I:1-I:C, II:1-II:C; linker I:N-II:N via Actinocin(1to9)) | > 20 | > 20 |
| CS(=O)(=O)Nc1cc2occ(NC=O)c(=O)c2cc1Oc1ccccc1 [IGURATIMOD] | > 20 | > 20 |
| Oc1ccc2c(c1)[C@@]13CCCC[C@@]1(O)[C@@H](C2)N(CC1CCC1)CC3 [BUTORPHANOL] | > 20 | > 20 |
| CN(C)C(=O)CCn1nc(Nc2ccc3c(c2)OC(F)(F)O3)nc1-c1ccncc1 [JNJ-39393406] | > 20 | > 20 |
| CON(C)Cc1ccc(O)c2c1C[C@H]1C[C@H]3[C@H](N(C)C)C(O)=C(C(N)=O)C(=O)[C@@]3(O)C(O)=C1C2=O [SARECYCLINE] | > 20 | > 20 |
| C=CCN1CC[C@]23CCCCC2[C@H]1Cc1ccc(O)cc13 (stereo partly drawn) | > 20 | > 20 |
| CC(=O)c1ccc[nH]1 [2-ACETYLPYRROLE] | > 20 | > 20 |
| NC(=O)c1ccc[n+]([C@@H]2O[C@H](COP(=O)([O-])OP(=O)(O)OC[C@H]3O[C@@H](n4cnc5c(N)ncnc54)[C@H](O)[C@@H]3O)[C@@H](O)[C@H]2O)c1 [NADIDE] | > 20 | > 20 |
